Experimental data published in article PMC11859928, “Design, Synthesis, and Antiproliferative Activity of Novel Indole/1,2,4-Triazole Hybrids as Tubulin Polymerization Inhibitors” (Pharmaceuticals, 2025).
Like-named read-outs stand apart in the source and are kept apart here.

Key:
Breast cancer subpanel = experiment: NCI five-dose assay, subpanel mean; type: cell-based, human
BT-549 = experiment: NCI five-dose assay; type: cell-based, human; conditions: BT-549, Breast cancer
NCI-H460 = experiment: NCI five-dose assay; type: cell-based, human; conditions: NCI-H460, Non-small cell lung cancer
SNB-75 = experiment: NCI five-dose assay; type: cell-based, human; conditions: SNB-75, CNS cancer
EKVX = experiment: NCI five-dose assay; type: cell-based, human; conditions: Non-small cell lung cancer
786-0 = experiment: NCI five-dose assay; type: cell-based, human; conditions: 786-0, Renal cancer
LOX IMVI = experiment: NCI five-dose assay; type: cell-based, human; conditions: Melanoma
tubulin = molecular target: T1, tubulin (Sus scrofa, UniProt P02550+P02554); experiment: Tubulin polymerization inhibitory assay; type: biochemical
T1 construct: purchased Cytoskeleton Inc., Denver, CO, USA
Excerpt: The substances’ effects on tubulin polymerization were examined using the Tubulin Polymerization Assay Kit (Cytoskeleton Inc., Denver, CO, USA) according to the supplier’s instructions, with details described in Appendix A..
The activity of compounds on tubulin polymerization was investigated using the Tubulin Polymerization Assay Kit (Cytoskeleton Inc., Denver, CO, USA), which works via fluorescent reporter enhancement. […] Docetaxel and vincristine (Apoteket AB, Stockholm, Sweden) served as positive stabilizing and destabilizing controls. Both were used at a 3 µM concentration in PBS.

SF-295 = experiment: NCI five-dose assay; type: cell-based, human; conditions: SF-295, CNS cancer
NCI-H322M = experiment: NCI five-dose assay; type: cell-based, human; conditions: Non-small cell lung cancer
Prostate cancer subpanel = experiment: NCI five-dose assay, subpanel mean; type: cell-based, human
SK-MEL-2 = experiment: NCI five-dose assay; type: cell-based, human; conditions: SK-MEL-2, Melanoma
HL-60(TB) = experiment: NCI five-dose assay; type: cell-based, human; conditions: Leukemia
OVCAR-4 = experiment: NCI five-dose assay; type: cell-based, human; conditions: OVCAR-4, Ovarian cancer
MDA-MB-435 = experiment: NCI five-dose assay; type: cell-based, human; conditions: MDA-MB-435, Melanoma
NCI-H522 = experiment: NCI five-dose assay; type: cell-based, human; conditions: NCI-H522, Non-small cell lung cancer
NCI-H23 = experiment: NCI five-dose assay; type: cell-based, human; conditions: NCI-H23, Non-small cell lung cancer
HCT-116 = experiment: NCI five-dose assay; type: cell-based, human; conditions: HCT-116, Colon cancer
SK-OV-3 = experiment: NCI five-dose assay; type: cell-based, human; conditions: SK-OV-3, Ovarian cancer
UO-31 = experiment: NCI five-dose assay; type: cell-based, human; conditions: UO-31, Renal cancer
A498 = experiment: NCI five-dose assay; type: cell-based, human; conditions: A498, Renal cancer
CCRF-CEM = experiment: NCI five-dose assay; type: cell-based, human; conditions: Leukemia
DU-145 = experiment: NCI five-dose assay; type: cell-based, human; conditions: DU-145, Prostate cancer
NCI-H226 = experiment: NCI five-dose assay; type: cell-based, human; conditions: NCI-H226, Non-small cell lung cancer
HOP-62 = experiment: NCI five-dose assay; type: cell-based, human; conditions: HOP-62, Non-small cell lung cancer
[1] = Homo sapiens, 48 h, read-out: LC50 (the source's name)
[2] = Homo sapiens, read-out: GI50 Conc. per Cell Lines

T1 sequence (P02554 whole entry): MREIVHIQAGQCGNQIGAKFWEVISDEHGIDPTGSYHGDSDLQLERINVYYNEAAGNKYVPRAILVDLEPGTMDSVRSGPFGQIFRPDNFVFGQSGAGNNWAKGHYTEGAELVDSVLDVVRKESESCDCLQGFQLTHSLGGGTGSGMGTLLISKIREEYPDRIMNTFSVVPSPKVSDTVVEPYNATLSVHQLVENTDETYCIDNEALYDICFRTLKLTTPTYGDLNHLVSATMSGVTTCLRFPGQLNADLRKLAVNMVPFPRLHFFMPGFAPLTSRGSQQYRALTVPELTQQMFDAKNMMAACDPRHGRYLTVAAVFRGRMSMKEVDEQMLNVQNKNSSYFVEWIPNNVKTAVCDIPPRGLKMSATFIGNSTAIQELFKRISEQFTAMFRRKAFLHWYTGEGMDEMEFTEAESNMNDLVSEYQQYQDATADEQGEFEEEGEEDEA
T1 sequence (P02550 whole entry): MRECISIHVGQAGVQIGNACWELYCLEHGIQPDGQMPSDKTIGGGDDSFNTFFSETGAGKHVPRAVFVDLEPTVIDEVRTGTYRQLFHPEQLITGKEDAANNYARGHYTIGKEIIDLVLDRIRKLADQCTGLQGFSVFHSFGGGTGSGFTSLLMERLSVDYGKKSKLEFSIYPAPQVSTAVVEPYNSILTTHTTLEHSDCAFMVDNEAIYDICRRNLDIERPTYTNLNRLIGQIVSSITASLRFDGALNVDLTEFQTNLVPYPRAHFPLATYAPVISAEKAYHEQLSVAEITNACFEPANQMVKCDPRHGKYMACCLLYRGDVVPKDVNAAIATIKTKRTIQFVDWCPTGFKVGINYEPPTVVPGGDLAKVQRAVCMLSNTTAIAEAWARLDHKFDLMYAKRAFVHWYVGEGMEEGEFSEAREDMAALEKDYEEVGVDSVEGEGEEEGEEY

Cc1ccc(C(=O)CSc2nnc(-c3c[nH]c4ccccc34)n2-c2ccccc2)cc1 [Compound 6h, 2-((5-(1H-Indol-3-yl)-4-phenyl-4H-1,2,4-triazol-3-yl)thio)-1-(p-tolyl)ethenone]
GI50 Selectivity Ratio (MID a/MID b) (Breast cancer subpanel; Breast cancer subpanel): 1.07
GI50 (Breast cancer subpanel; Homo sapiens, average sensitivity of all cell lines of the Breast cancer subpanel, read-out: GI50 Subpanel MID b): 18 µM
TGI Conc. per Cell Lines (BT-549): 46.70 µM
CC50 (BT-549; [1]): 87.2 µM
GI50 (BT-549; [2]): 25.1 µM
CC50 (NCI-H460; [1]): 63.5 µM
GI50 (NCI-H460; [2]): 15.2 µM
TGI Conc. per Cell Lines (NCI-H460): 31.00 µM
CC50 (SNB-75; [1]): 68 µM
GI50 (SNB-75; [2]): 12.9 µM
TGI Conc. per Cell Lines (SNB-75): 29.60 µM
CC50 (EKVX; [1]): > 100 µM
GI50 (EKVX; [2]): 19 µM
TGI Conc. per Cell Lines (EKVX): 98.90 µM
TGI Conc. per Cell Lines (786-0): 31.20 µM
LC50 (50% lethal concentration) (786-0; Homo sapiens, 48 h): 66.4 µM
GI50 (786-0; [2]): 14.7 µM
GI50 (LOX IMVI; [2]): 14.3 µM
TGI Conc. per Cell Lines (LOX IMVI): 27.30 µM
tubulin inhibitory activity, times lower than compound 7j (tubulin): 1.5 times
%inhibition (tubulin; conc 0.01 (unit not given; IC50 from this curve in µg/ml)): 5.97%
%inhibition (tubulin; conc 0.1 (unit not given; IC50 from this curve in µg/ml)): 16.8%
%inhibition (tubulin; conc 1 (unit not given; IC50 from this curve in µg/ml)): 30%
%inhibition (tubulin; conc 10 (unit not given; IC50 from this curve in µg/ml)): 58%
%inhibition (tubulin; conc 100 (unit not given; IC50 from this curve in µg/ml)): 81.2%
IC50 (tubulin; read-out: Tub. IC50±SD (converted)): 9.51 µM
IC50 (tubulin; read-out: Tubulin Inhibitory Effect, IC50): 9.5 ± 0.3 µM
CC50 (SF-295; [1]): 53.3 µM
GI50 (SF-295; [2]): 12.6 µM
TGI Conc. per Cell Lines (SF-295): 25.90 µM
CC50 (NCI-H322M; [1]): > 100 µM
GI50 (NCI-H322M; [2]): 16.3 µM
TGI Conc. per Cell Lines (NCI-H322M): 55.50 µM
GI50 (Prostate cancer subpanel; Homo sapiens, average sensitivity of all cell lines of the Prostate cancer subpanel, read-out: GI50 Subpanel MID b): 8.42 µM
GI50 Selectivity Ratio (MID a/MID b) (Prostate cancer subpanel; Prostate cancer subpanel): 2.29
CC50 (SK-MEL-2; [1]): > 100 µM
GI50 (SK-MEL-2; [2]): 30.2 µM
TGI Conc. per Cell Lines (SK-MEL-2): >100 µM
CC50 (HL-60(TB); [1]): > 100 µM
GI50 (HL-60(TB); [2]): 30.8 µM
TGI Conc. per Cell Lines (HL-60(TB)): ˃100 µM
LC50 (OVCAR-4; Homo sapiens, 48 h): > 100 µM
GI50 (OVCAR-4; [2]): 14.5 µM
TGI Conc. per Cell Lines (OVCAR-4): 41.50 µM
CC50 (MDA-MB-435; [1]): > 100 µM
GI50 (MDA-MB-435; [2]): 22.8 µM
TGI Conc. per Cell Lines (MDA-MB-435): 65.40 µM
CC50 (NCI-H522; [1]): > 100 µM
GI50 (NCI-H522; [2]): 16.3 µM
TGI Conc. per Cell Lines (NCI-H522): 43.70 µM
CC50 (NCI-H23; [1]): 54.9 µM
GI50 (NCI-H23; [2]): 13.7 µM
TGI Conc. per Cell Lines (NCI-H23): 27.50 µM
TGI Conc. per Cell Lines (HCT-116): 60.40 µM
CC50 (HCT-116; [1]): > 100 µM
GI50 (HCT-116; [2]): 18.7 µM
CC50 (SK-OV-3; [1]): 64.4 µM
GI50 (SK-OV-3; [2]): 17 µM
TGI Conc. per Cell Lines (SK-OV-3): 33.10 µM
CC50 (UO-31; [1]): 69.5 µM
GI50 (UO-31; [2]): 14.2 µM
TGI Conc. per Cell Lines (UO-31): 31.40 µM
TGI Conc. per Cell Lines (A498): 69.40 µM
LC50 (A498; Homo sapiens, 48 h): > 100 µM
GI50 (A498; [2]): 22.1 µM
CC50 (CCRF-CEM; [1]): > 100 µM
GI50 (CCRF-CEM; [2]): 54.4 µM
TGI Conc. per Cell Lines (CCRF-CEM): ˃100 µM
TGI Conc. per Cell Lines (DU-145): >100 µM
CC50 (DU-145; [1]): > 100 µM
GI50 (DU-145; [2]): 4.43 µM
CC50 (NCI-H226; [1]): 69.8 µM
GI50 (NCI-H226; [2]): 9.22 µM
TGI Conc. per Cell Lines (NCI-H226): 26.10 µM
TGI Conc. per Cell Lines (HOP-62): 35.90 µM
CC50 (HOP-62; [1]): 80 µM
GI50 (HOP-62; [2]): 16.1 µM
